Measurements reported in US20190192502A1, “Modulation of Transcription Initiation Factor TFIID Subunit 1 (TAF1) for Treating Leukemia” (UNIVERSITY OF MIAMI, priority 2017, published 2019).

Legend:
[1] = tested on: Kasumi-1 cells; test: Cell growth, CellTiter-Glow luminescent cell viability assay, Kasumi-1 cells; type: cell-based, human; conditions: for growth of Kasumi-1 cells: 3 days of treatment
Method: (§1) FIGS. 8A-8F. The effect of TAF1 bromodomain inhibitor Bay-364 on the growth of Kasumi-1 cells, K562 cells and CD34+ cells. (FIGS. 8A-8C) The growth of Kasumi-1 cells, CD34+ cells and K562 cells in the presence or absence of different concentrations of bromodomain inhibitors Bay-364, Bay-299 or JQ-1. The cell growth was measured by CellTiter-Glow luminescent cell viability assay after 3 days of treatment with the inhibitors. Each treatment was in triplicate and shown as average±SD. (FIG. 8D) IC50s (μM) of inhibitors on Kasumi-1, CD34+ and K562 cellsKasumi-1 cells, CD34+ cells and K562 cells were treated with different concentrations of Bay-364, Bay-299 and JQ-1 for three days and cell growth was measured by CellTiter-Glow luminescent cell viability assay. Each treatment was in triplicate and IC50s were calculated using GraphPad Prism. […] RNA was extracted from Kasumi-1 cells treated with or without Bay-364 for 72 hours. mRNA levels of individual genes were standardized by 18S rRNA level. (FIG. 8F) TAF1 working model: Under normal conditions, the acetylation of K43 on AE by p300 is recognized by the bromodomains of TAF1 and TAF1 enhances the binding of AE to chromatin. Then transcription is activated. In absence of TAF1, the binding affinity of AE with chromatin is abrogated, and transcription is blocked.
Kasumi-1 cells were grown in RPMI 1640 supplemented with 20% fetal bovine serum, SKNO-1 cells were grown in RPMI 1640 with 10% fetal bovine serum and 10 ng/ml GM-CSF. K562 cells were grown in IMDM with 10% fetal bovine serum.
Bay-364 (also Bay-299N) is a commercially available small molecule inhibitor of the second bromodomain in TAF1. Given the essential role of TAF1 in the proliferation of AE expressing cells, the effect of Bay-364 on the growth of Kasumi-1, K562 and CD34+ cells was examined. […] JQ-1 inhibits the bromodomains of several BET family proteins including BRD2, BRD3, BRD4 and BRDT.

[2] = tested on: CD34+ cells; test: Cell growth, CellTiter-Glow luminescent cell viability assay, CD34+ cells; type: cell-based, human; conditions: 3 days of treatment
Method: as §1, with “(FIG. 8F) TAF1 working model: Under normal conditions, the acetylation of K43 on AE by p300 is recognized by the bromodomains of TAF1 and TAF1 enhances the binding of AE to chromatin. Then transcription is activated. In absence of TAF1, the binding affinity of AE with chromatin is abrogated, and transcription is blocked.” left out
Human cord blood was purchased from the New York Blood Center. […] Seven days after the initial plating, colonies were counted and then all the cells were collected for replating weekly with a density of 3000 cells per well for continuous 4 weeks. Cobblestone area forming cell assays (CAFC) were performed as described previously 25, the numbers of total cobblestone area were counted after 5 weeks. […]

[3] = tested on: K562 cells; test: Cell growth, CellTiter-Glow luminescent cell viability assay, K562 cells; type: cell-based; conditions: 3 days of treatment
Method: as §1, with “blocked. […]” for “blocked.”

[4] = tested on: AE upregulated genes (ID1, CARM1, MYC); test: Realtime PCR of AE upregulated genes in Kasumi-1 cells; type: cell-based, human; conditions: 72 hours, standardized by 18S rRNA level
Method: as §1, with “In absence of TAF1, the binding affinity of AE with chromatin is abrogated, and transcription is blocked.” left out
RNA was extracted using RNeasy mini kit (Qiagen) and cDNA was generated by QuantiTect Rev. […]

| SMILES | growth of Kasumi-1 cells [1] | growth of CD34+ cells [2] | growth of K562 cells [3] | mRNA levels of ID1, CARM1, MYC [4] | IC50s on Kasumi-1 cells compared with CD34+ cells ([1]; three days, GraphPad Prism) |
| --- | --- | --- | --- | --- | --- |
| Cc1cc2c(cc1N1C(=O)c3cccc4c(CCCO)ccc(c34)C1=O)n(C)c(=O)n2C [Bay-299, 6-(3-Hydroxypropyl)-2-(1,3,6-trimethyl-2-oxo-2,3-dihydro-1Hbenzimidazol-5-yl)-1H-benzo[de]isoquinoline-1,3(2H)-dione] | suppresses the growth | suppresses the growth | suppresses the growth | – | – |
| Cn1c(=O)[nH]c2cc(N3C(=O)c4cccc5c(CCCO)ccc(c45)C3=O)ccc21 [Bay-364] | more sensitive to Bay-364 treatment than CD34+ cells | much less toxicity on HSPCs | little influence on the growth | repressed the expression of these genes | – |
| Cc1sc2c(c1C)C(c1ccc(Cl)cc1)=N[C@@H](CC(=O)OC(C)(C)C)c1nnc(C)n1-2 [JQ-1] | more potent than Bay-364 | – | – | – | quite similar |
